Source: patent publication US10750743B2, “Pyridazinone herbicides” (E.I. DU PONT DE NEMOURS AND COMPANY, priority 2015, dated 2020)

Columns and labels:
Format in all cases: in vivo
[1] = system: ragweed (common ragweed, Ambrosia elatior); experiment: Test A postemergence application, visual injury rating
How it was run: (§1)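 Seeds sown in a loam soil–sand blend received a directed preemergence soil spray of test chemical in a non-phytotoxic solvent mixture with surfactant. Postemergence plants were sprayed at 2 to 10 cm, one- to two-leaf stage. After approximately 10 d in greenhouse, injury was visually rated 0 (no effect) to 100 (complete control) against untreated controls.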

[2] = system: pigweed (Amaranthus retroflexus); experiment: as above
How it was run: as §1

[3] = system: wheat (Triticum aestivum); experiment: as above
How it was run: as §1

[4] = system: blackgrass (Alopecurus myosuroides); experiment: as above; settings: Alopecurus myosuroides, post-emergence, 240 h, 0 to 100 scale, 0 no effect, 100 complete control, read-out: Blackgrass plant response rating
How it was run: as §1

kochia (Kochia scoparia) [5] = experiment: as above
How it was run: as §1

[6] = system: ryegrass, It. (Italian ryegrass, Lolium multiflorum); experiment: as above
How it was run: as §1

[7] = system: foxtail, giant (giant foxtail, Setaria faberii); experiment: as above
How it was run: as §1

corn (Zea mays) = experiment: as above
How it was run: as §1

[8] = system: galium (catchweed bedstraw, Galium aparine); experiment: as above
How it was run: as §1

[9] = system: barnyardgrass (Echinochloa crus-galli); experiment: as above; settings: Echinochloa crus-galli, post-emergence, 240 h, 0 to 100 scale, 0 no effect, 100 complete control, read-out: Barnyardgrass plant response rating
How it was run: as §1

[10] = system: ragweed (common ragweed, Ambrosia elatior); experiment: Test A preemergence, directed soil spray, visual injury rating; settings: Ambrosia artemisiifolia, pre-emergence, 240 h, 0 is no effect, 100 is complete control, read-out: Plant response rating (0 to 100 scale), Ragweed
How it was run: as §1

[11] = system: pigweed (Amaranthus retroflexus); experiment: as above; settings: Amaranthus retroflexus, pre-emergence, 240 h, 0 is no effect, 100 is complete control, read-out: Plant response rating (0 to 100 scale), Pigweed
How it was run: as §1

kochia (Kochia scoparia) [12] = experiment: as above; settings: Bassia scoparia, pre-emergence, 240 h, 0 is no effect, 100 is complete control, read-out: Plant response rating (0 to 100 scale), Kochia
How it was run: as §1

[13] = system: ryegrass, It. (Italian ryegrass, Lolium multiflorum); experiment: as above; settings: Lolium multiflorum, pre-emergence, 240 h, 0 is no effect, 100 is complete control, read-out: Plant response rating (0 to 100 scale), Ryegrass, It.
How it was run: as §1

[14] = system: foxtail, giant (giant foxtail, Setaria faberii); experiment: as above; settings: Setaria faberi, pre-emergence, 240 h, 0 is no effect, 100 is complete control, read-out: Plant response rating (0 to 100 scale), Foxtail, Giant
How it was run: as §1

[15] = system: barnyardgrass (Echinochloa crus-galli); experiment: as above; settings: Echinochloa crus-galli, pre-emergence, 240 h, 0 is no effect, 100 is complete control, read-out: Plant response rating (0 to 100 scale), Barnyardgrass
How it was run: as §1

rice (Oryza sativa) = experiment: Test B flooded paddy test, visual rating; settings: Oryza sativa, 360 h; Flood, 250 g ai/ha, applied to paddy water, rated after 13 to 15 d; read-out: Rice plant response rating (0 to 100 scale, 0 is no effect, 100 is complete control)
How it was run: (§2)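 Plants at the 2-leaf stage were flooded to 3 cm above soil, and test compounds were applied directly into the paddy water, which was held at that depth throughout. After 13 to 15 d in a greenhouse, injury was rated visually against untreated controls on a 0–100 scale (0 no effect, 100 complete control).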

[16] = system: ducksalad (Heteranthera limosa); experiment: Test B flooded paddy test, visual rating; settings: Heteranthera limosa, 360 h; Flood, 250 g ai/ha, applied to paddy water, rated after 13 to 15 d; read-out: Ducksalad plant response rating (0 to 100 scale, 0 is no effect, 100 is complete control)
How it was run: as §2

[17] = system: barnyardgrass (Echinochloa crus-galli); experiment: Test B flooded paddy test, visual rating; settings: Echinochloa crus-galli, 360 h; Flood, 250 g ai/ha, applied to paddy water, rated after 13 to 15 d; read-out: Barnyardgrass plant response rating (0 to 100 scale, 0 is no effect, 100 is complete control)
How it was run: as §2

[18] = 31 g ai/ha, 0 is no effect, 100 is complete control

## Cn1nc(Cl)c(O)c(-c2nccc3ccccc23)c1=O [Compound 67, 6-chloro-5-hydroxy-4-(1-isoquinolinyl)-2-methyl-3(2H)-pyridazinone]
[1]; [18]
  Plant response rating (0 to 100 scale), Ragweed: 0
[1]; Ambrosia artemisiifolia, post-emergence, 240 h, 125 g ai/ha, 0 to 100 scale, 0 no effect, 100 complete control, read-out: Ragweed plant response rating
  pest or weed control at 125 g/ha: 10%
[2]; [18]
  Plant response rating (0 to 100 scale), Pigweed: 40
[2]; Amaranthus retroflexus, post-emergence, 240 h, 125 g ai/ha, 0 to 100 scale, 0 no effect, 100 complete control, read-out: Pigweed plant response rating
  pest or weed control at 125 g/ha: 50%
[3]; [18]
  Plant response rating (0 to 100 scale), Wheat: 0
[3]; Triticum aestivum, post-emergence, 240 h, 125 g ai/ha, 0 to 100 scale, 0 no effect, 100 complete control, read-out: Wheat plant response rating
  plant injury at 125 g/ha: 0%
[4]; 31 g ai/ha
  pest or weed control at 31 g/ha: 0%
[4]; 125 g ai/ha
  pest or weed control at 125 g/ha: 0%
Kochia (Kochia scoparia) [5]; [18]
  Plant response rating (0 to 100 scale), Kochia: 0
Kochia (Kochia scoparia) [5]; Bassia scoparia, post-emergence, 240 h, 125 g ai/ha, 0 to 100 scale, 0 no effect, 100 complete control, read-out: Kochia plant response rating
  pest or weed control at 125 g/ha: 40%
[6]; [18]
  Plant response rating (0 to 100 scale), Ryegrass, It.: 20
[6]; Lolium multiflorum, post-emergence, 240 h, 125 g ai/ha, 0 to 100 scale, 0 no effect, 100 complete control, read-out: Ryegrass, It. plant response rating
  pest or weed control at 125 g/ha: 60%
[7]; [18]
  Plant response rating (0 to 100 scale), Foxtail, Giant: 0
[7]; Setaria faberi, post-emergence, 240 h, 125 g ai/ha, 0 to 100 scale, 0 no effect, 100 complete control, read-out: Foxtail, Giant plant response rating
  pest or weed control at 125 g/ha: 0%
Corn (Zea mays); [18]
  Plant response rating (0 to 100 scale), Corn: 0
Corn (Zea mays); Zea mays, post-emergence, 240 h, 125 g ai/ha, 0 to 100 scale, 0 no effect, 100 complete control, read-out: Corn plant response rating
  plant injury at 125 g/ha: 0%
[8]; [18]
  Plant response rating (0 to 100 scale), Galium: 20
[8]; Galium, post-emergence, 240 h, 125 g ai/ha, 0 to 100 scale, 0 no effect, 100 complete control, read-out: Galium plant response rating
  pest or weed control at 125 g/ha: 40%
[9]; 31 g ai/ha
  pest or weed control at 31 g/ha: 0%
[9]; 125 g ai/ha
  pest or weed control at 125 g/ha: 0%
[10]; 31 g ai/ha
  pest or weed control at 31 g/ha: 0%
[10]; 125 g ai/ha
  pest or weed control at 125 g/ha: 0%
[11]; 31 g ai/ha
  pest or weed control at 31 g/ha: 10%
[11]; 125 g ai/ha
  pest or weed control at 125 g/ha: 20%
Kochia (Kochia scoparia) [12]; 31 g ai/ha
  pest or weed control at 31 g/ha: 0%
Kochia (Kochia scoparia) [12]; 125 g ai/ha
  pest or weed control at 125 g/ha: 0%
[13]; 31 g ai/ha
  pest or weed control at 31 g/ha: 10%
[13]; 125 g ai/ha
  pest or weed control at 125 g/ha: 50%
[14]; 31 g ai/ha
  pest or weed control at 31 g/ha: 0%
[14]; 125 g ai/ha
  pest or weed control at 125 g/ha: 0%
[15]; 31 g ai/ha
  pest or weed control at 31 g/ha: 0%
[15]; 125 g ai/ha
  pest or weed control at 125 g/ha: 0%
Rice (Oryza sativa)
  plant injury at 250 g/ha: 0%
[16]
  pest or weed control at 250 g/ha: 0%
[17]
  pest or weed control at 250 g/ha: 0%
